The values that follow come from patent publication US7098204B2 (C.N.R.S., priority 1999, dated 2006).

One data set concerns the target cdk6/cyclin D2 (Homo sapiens, UniProt Q00534). Briefly: cdk6/cyclin D2 kinase assay. Type of data set: biochemical. As to conditions: 15 μM ATP. As for the experimental part: (§1) Kinases activities were assayed in Buffer A or C (unless otherwise stated), at 30° C., at a final ATP concentration of 15 μM. Blank values were subtracted and activities calculated as pmoles of phosphate incorporated for a 10 min. incubation (usually expressed in % of the maximal activity, i.e. without inhibitors). Controls were performed with appropriate dilutions of Me2SO. In some cases phosphorylation of the substrate was assessed by autoradiography after SDS-PAGE. IC50 values were estimated from the dose-response curves. • CDK1/cyclin B was extracted in homogenisation buffer from M phase starfish (Marthasterias glacialis) oocytes and purified by affinity chromatography on p9^CKShs1-Sepharose beads, from which it was eluted by free p9^CKShs1 as described. The kinase activity was assayed in buffer C, with 1 mg histone H1/ml, in the presence of 15 μM [γ-^32P] ATP (3,000 Ci/mmol; 1 mCi/ml) in a final volume of 30 μl. After 10 min. incubation at 30° C., 25 μl aliquots of supernatant were spotted onto 2.5×3 cm pieces of Whatman P81 phosphocellulose paper, and, 20 sec. later, the filters were washed five times (for at least 5 min. each time) in a solution of 10 ml phosphoric acid/liter of water. The wet filters were counted in the presence of 1 ml ACS (Amersham) scintillation fluid. • GSK-3β was either purified from rabbit muscle or expressed in and purified from insect Sf9 cells. […]

Another data set deals with c-abl tyrosine kinase (Abelson murine leukemia virus, UniProt P00521). Description: c-abl tyrosine kinase assay. As to conditions: 15 μM ATP. Type of data set: biochemical. As for the experimental part:
as §1

The target in another data set is topoisomerase II α (Homo sapiens, UniProt P11388). Description: topoisomerase II α assay. The format is biochemical. To be noted: −(x) = no effect at the highest dose tested (in parentheses). As for the experimental part: Enzyme activities were assayed as described in the Experimental Procedures section, in the presence of increasing HD concentrations. IC50's were calculated from the dose-response curves.−, no effect at the highest dose tested (in parentheses).
topoisomerase II α, sequence (P11388 whole entry): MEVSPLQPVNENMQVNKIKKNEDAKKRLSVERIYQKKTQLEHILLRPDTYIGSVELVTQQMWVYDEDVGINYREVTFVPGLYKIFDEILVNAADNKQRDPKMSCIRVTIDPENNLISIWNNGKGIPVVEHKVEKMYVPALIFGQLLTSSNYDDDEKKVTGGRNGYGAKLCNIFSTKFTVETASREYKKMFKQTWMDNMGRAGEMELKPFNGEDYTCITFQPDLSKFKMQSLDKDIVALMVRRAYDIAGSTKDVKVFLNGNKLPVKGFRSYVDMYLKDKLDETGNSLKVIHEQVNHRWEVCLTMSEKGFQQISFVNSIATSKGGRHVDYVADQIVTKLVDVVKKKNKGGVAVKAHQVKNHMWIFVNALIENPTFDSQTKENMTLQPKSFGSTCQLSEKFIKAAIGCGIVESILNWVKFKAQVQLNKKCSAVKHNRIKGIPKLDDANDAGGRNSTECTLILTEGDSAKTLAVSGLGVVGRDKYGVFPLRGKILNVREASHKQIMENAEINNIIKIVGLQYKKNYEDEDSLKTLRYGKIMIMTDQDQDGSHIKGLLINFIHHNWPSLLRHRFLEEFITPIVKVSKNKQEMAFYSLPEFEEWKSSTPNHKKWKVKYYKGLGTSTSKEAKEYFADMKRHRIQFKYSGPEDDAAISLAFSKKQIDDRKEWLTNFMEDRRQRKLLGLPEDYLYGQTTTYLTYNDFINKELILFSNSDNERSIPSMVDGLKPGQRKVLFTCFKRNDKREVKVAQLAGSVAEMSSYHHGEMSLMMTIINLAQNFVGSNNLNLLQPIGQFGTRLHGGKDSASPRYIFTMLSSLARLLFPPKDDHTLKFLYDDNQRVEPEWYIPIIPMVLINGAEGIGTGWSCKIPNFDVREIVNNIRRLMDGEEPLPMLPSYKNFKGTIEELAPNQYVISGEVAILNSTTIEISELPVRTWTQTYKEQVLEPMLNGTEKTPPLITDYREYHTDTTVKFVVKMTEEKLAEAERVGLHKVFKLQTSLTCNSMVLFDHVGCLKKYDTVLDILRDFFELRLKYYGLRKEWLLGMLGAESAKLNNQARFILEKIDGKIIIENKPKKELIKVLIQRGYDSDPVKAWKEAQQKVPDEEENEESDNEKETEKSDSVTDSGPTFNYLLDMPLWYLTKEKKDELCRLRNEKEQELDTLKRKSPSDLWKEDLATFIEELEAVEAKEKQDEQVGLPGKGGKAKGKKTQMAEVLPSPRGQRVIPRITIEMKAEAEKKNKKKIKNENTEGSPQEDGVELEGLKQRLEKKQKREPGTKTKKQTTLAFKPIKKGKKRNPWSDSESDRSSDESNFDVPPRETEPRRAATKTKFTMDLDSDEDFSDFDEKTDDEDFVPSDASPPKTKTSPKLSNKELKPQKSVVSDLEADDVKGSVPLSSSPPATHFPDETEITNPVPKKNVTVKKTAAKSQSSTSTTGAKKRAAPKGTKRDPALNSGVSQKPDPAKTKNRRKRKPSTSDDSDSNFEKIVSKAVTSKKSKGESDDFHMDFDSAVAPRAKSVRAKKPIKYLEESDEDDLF

For the next data set, the system named is brain, SF-295. Briefly: Human cancer cell line SF-295 proliferation. Type of data set: cell-based.
The test system of a further data set is HT29-18-C1 cells. Briefly: Trypan blue dye exclusion, HT29-18-C1. The format is cell-based, human. As for the experimental part: HT29-18-C1 cells were synchronised in G1 by serum deprivation. 5% FCS was added at time 0 and cells were simultaneously treated (o) or not (o) exposed to 10 μM HD. During 24 h and thereafter cultured in 5% FCS-containing medium. Cell number was determined every 12 h for a 72 h period using a hemocytometer. The kinetics of growth inhibition are given on FIG. 9A. […] Serum-treated cells (time 0) were exposed to various HD concentrations and counted after 24 h. The results are given on FIG. 9B. The number of non-serum stimulated cells ( ? ) is indicated for comparison. […] Trypan blue dye exclusion indicated little toxicity associated with 10 and 80 μM HD at 24 h (>95% and 90% viability, respectively). This antiproliferative effect of HD appears to be reversible. In fact, cells slowly began to proliferate again after 72 h culture.

Data set [1] addresses casein kinase 1. Briefly: casein kinase 1 assay. Type of data set: biochemical. As to conditions: 15 μM ATP; −(x) = no effect at highest concentration x tested; read-out: IC50 casein kinase 1 (CK 1). As for the experimental part: (§2) Kinases activities were assayed in Buffer A or C (unless otherwise stated), at 30° C., at a final ATP concentration of 15 μM. Blank values were subtracted and activities calculated as pmoles of phosphate incorporated for a 10 min. incubation (usually expressed in % of the maximal activity, i.e. without inhibitors). Controls were performed with appropriate dilutions of Me2SO. In some cases phosphorylation of the substrate was assessed by autoradiography after SDS-PAGE. IC50 values were estimated from the dose-response curves. • CDK1/cyclin B was extracted in homogenisation buffer from M phase starfish (Marthasterias glacialis) oocytes and purified by affinity chromatography on p9^CKShs1-Sepharose beads, from which it was eluted by free p9^CKShs1 as described. The kinase activity was assayed in buffer C, with 1 mg histone H1/ml, in the presence of 15 μM [γ-^32P] ATP (3,000 Ci/mmol; 1 mCi/ml) in a final volume of 30 μl. After 10 min. incubation at 30° C., 25 μl aliquots of supernatant were spotted onto 2.5×3 cm pieces of Whatman P81 phosphocellulose paper, and, 20 sec. later, the filters were washed five times (for at least 5 min. each time) in a solution of 10 ml phosphoric acid/liter of water. The wet filters were counted in the presence of 1 ml ACS (Amersham) scintillation fluid. • GSK-3β was either purified from rabbit muscle or expressed in and purified from insect Sf9 cells. It was assayed, following a 1/100 dilution in 1 mg BSA/ml 10 mM DTT, with 5 μl 40 μM GS-1 peptide as a substrate, in buffer A, in the presence of 15 μM [γ-^32P] ATP (3,000 Ci/mmol; 1 mCi/ml) in a final volume of 30 μl. […] Its activity was assayed in buffer C as described for CDK1/cyclin B. • CDK2/cyclin A, CDK2/cyclin E, CDK3/cyclin E, CDK4/cyclin D1, CDK6/cyclin D2, His-tagged erk1 and erk2, protein kinase C isoforms, the catalytic subunit of cAMP-dependent protein kinase, cGMP-dependent protein kinase, Myosin light chain kinase, casein kinases 1 & 2, ASK-γ (a plant homologue of GSK-3), insulin receptor tyrosine kinase domain (CIRK-41), c-raf, MAPKK, c-jun N terminal kinase (obtained from Promega), c-src kinase and v-abl kinase were assayed as described. Electrophoresis and Western Blotting

The next data set addresses c-src tyrosine kinase (Homo sapiens, UniProt P12931). Description: c-src tyrosine kinase assay. The format is biochemical. To be noted: 15 μM ATP. As for the experimental part: as §1
The next data set concerns the target protein kinase C ε (Homo sapiens, UniProt Q02156). Description: protein kinase C ε assay. Type of data set: biochemical. As to conditions: 15 μM ATP. As for the experimental part: as §1
Data set [2] deals with casein kinase 1. Description: In vitro phosphorylation of presenilin-2-MBP by casein kinase 1. The format is biochemical. As to conditions: presenilin-2-MBP substrate, autoradiography. As for the experimental part: The large hydrophilic loop of presenilin-2 between transmembrane domains 6 and 7 was expressed in E. coli as a presseilin-2 loop—maltose-binding protein (MBP) fusion protein [25]. Following affinity chromatography purification presenilin-2-MBP was used as a substrate for CK1. After 30 min incubation in the presence of various HD concentrations, the kinase reaction was stopped by addition of Laemmli sample buffer. MBP-presenilin-2 was resolved by SDS-PAGE and its phosphorylation level visualised by autoradiography.

The subject of a further data set is lung, H460. Briefly: Human cancer cell line H460 proliferation. Type of data set: cell-based. As to conditions: NCI-H460.
Another data set addresses cdk2/cyclin A (Homo sapiens, UniProt P24941). Briefly: cdk2/cyclin A kinase assay. Type of data set: biochemical. To be noted: 15 μM ATP. As for the experimental part:
as §1

A further data set concerns the target protein kinase C β2 (Homo sapiens, UniProt P05771). Description: protein kinase C β2 assay. Type of data set: biochemical. To be noted: 15 μM ATP. As for the experimental part:
as §1

In a further data set the test system is P388 cell line. Description: Inhibition of cell proliferation, P388. Type of data set: cell-based. As to conditions: Mus musculus, P388; read-out: IC50 on P388 cell line in μM (parentheses).
The next data set concerns the target cdk2/cyclin E (Homo sapiens, UniProt P24941). Description: cdk2/cyclin E kinase assay. To be noted: 15 μM ATP. Type of data set: biochemical. As for the experimental part: as §1
Another data set has as its system kidney, A498. Description: Human cancer cell line A498 proliferation. The format is cell-based.
The next data set deals with cdk3/cyclin E (Homo sapiens, UniProt Q00526). Briefly: cdk3/cyclin E kinase assay. The format is biochemical. As to conditions: 15 μM ATP. As for the experimental part:
as §1

The target in another data set is CDK5/p35 (Rattus norvegicus, UniProt Q03114). Description: In vitro Pak1 phosphorylation by immunoprecipitated CDK5/p35. Type of data set: biochemical. As to conditions: CDK5/p35 immunoprecipitated from P02 rat cortices; read-out: IC50 CDK5/p35 towards GST-Pak1K299.
The next data set concerns the target protein kinase C α (Homo sapiens, UniProt P17252). Description: protein kinase C α assay. Type of data set: biochemical. As to conditions: 15 μM ATP. As for the experimental part: as §1
For another data set, the target named is CDK1/cyclin B. Description: CDK1/cyclin B kinase assay (histone H1). The format is biochemical, starfish (Marthasterias glacialis). As for the experimental part:
as §2

As usually defined, the IC50 is the concentration that gives 50% inhibition.

pIC50: −log10 of the molar value. ≈ marks a conversion by molar mass, not a printed value.

c-abl tyrosine kinase, sequence (P00521 whole entry): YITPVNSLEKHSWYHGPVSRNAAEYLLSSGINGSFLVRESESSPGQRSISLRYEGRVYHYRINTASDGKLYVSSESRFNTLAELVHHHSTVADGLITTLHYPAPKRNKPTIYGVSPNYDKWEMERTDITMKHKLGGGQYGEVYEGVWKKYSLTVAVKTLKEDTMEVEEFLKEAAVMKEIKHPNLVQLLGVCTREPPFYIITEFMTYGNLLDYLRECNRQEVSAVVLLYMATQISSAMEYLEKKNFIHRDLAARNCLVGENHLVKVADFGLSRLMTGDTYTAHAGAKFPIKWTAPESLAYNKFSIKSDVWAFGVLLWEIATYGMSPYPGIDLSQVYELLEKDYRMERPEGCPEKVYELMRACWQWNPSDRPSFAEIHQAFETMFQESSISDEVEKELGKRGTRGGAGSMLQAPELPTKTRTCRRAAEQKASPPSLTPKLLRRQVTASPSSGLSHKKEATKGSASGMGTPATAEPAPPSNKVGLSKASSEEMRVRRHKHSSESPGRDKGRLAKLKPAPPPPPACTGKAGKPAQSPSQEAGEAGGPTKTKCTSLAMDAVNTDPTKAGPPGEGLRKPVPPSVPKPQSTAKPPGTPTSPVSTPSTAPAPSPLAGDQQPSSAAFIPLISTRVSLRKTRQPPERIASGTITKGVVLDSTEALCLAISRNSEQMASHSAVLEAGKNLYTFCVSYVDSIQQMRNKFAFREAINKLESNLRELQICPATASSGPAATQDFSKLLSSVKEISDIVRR
c-src tyrosine kinase, sequence (P12931 whole entry): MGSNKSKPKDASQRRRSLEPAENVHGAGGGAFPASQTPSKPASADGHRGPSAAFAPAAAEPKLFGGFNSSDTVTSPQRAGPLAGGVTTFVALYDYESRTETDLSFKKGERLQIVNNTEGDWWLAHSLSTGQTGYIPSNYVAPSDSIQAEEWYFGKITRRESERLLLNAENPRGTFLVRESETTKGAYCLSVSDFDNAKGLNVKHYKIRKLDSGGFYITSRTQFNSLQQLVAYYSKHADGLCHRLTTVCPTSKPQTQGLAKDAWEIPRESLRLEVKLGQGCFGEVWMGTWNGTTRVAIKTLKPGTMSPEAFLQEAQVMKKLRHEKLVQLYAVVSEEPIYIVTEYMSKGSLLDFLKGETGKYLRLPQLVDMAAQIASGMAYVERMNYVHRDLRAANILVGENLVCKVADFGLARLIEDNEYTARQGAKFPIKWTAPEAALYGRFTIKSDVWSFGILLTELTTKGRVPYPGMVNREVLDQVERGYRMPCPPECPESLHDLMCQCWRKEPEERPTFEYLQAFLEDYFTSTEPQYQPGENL
protein kinase C ε, sequence (Q02156 whole entry, the tested form may be a part): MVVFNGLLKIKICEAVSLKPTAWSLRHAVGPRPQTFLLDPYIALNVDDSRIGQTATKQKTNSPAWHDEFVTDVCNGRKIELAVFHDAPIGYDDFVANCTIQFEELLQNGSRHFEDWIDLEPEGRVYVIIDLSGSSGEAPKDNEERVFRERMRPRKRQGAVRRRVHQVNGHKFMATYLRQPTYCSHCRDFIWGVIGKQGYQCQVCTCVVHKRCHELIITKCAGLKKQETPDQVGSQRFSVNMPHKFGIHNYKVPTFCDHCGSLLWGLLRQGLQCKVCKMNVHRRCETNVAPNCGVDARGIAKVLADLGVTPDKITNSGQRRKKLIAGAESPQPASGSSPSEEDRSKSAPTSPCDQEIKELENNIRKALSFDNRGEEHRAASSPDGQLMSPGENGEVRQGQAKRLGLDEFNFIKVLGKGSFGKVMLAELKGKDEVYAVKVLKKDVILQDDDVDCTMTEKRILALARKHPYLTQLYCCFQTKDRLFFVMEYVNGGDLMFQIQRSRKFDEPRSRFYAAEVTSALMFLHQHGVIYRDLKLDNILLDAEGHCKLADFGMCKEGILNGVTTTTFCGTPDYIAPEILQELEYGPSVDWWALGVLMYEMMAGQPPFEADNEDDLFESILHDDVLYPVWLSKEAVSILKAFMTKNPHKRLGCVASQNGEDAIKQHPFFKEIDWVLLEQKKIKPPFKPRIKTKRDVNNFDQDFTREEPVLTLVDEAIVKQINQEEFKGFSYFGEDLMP
protein kinase C β2, sequence (P05771 1-673 isoform P05771-2): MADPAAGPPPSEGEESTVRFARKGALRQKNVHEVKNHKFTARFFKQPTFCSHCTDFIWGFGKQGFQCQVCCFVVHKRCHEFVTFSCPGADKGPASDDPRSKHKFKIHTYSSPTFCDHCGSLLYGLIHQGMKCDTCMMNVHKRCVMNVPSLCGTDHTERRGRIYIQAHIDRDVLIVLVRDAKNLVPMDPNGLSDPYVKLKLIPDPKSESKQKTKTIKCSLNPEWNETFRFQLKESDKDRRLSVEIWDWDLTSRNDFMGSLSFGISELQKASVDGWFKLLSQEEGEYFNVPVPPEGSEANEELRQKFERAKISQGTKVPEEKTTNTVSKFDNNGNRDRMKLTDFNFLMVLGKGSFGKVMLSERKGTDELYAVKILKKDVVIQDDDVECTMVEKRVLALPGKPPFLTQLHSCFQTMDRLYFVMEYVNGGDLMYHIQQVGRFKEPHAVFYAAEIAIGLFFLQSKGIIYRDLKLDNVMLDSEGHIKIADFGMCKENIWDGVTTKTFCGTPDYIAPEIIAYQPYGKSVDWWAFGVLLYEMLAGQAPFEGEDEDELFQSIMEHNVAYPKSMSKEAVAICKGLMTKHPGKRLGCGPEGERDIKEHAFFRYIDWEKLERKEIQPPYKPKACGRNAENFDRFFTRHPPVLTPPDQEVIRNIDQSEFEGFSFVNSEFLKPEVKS
Description for CDK5/p35: CDK5/p35 was immunoprecipitaed from P02 rat cortices using the C-terminal Santa Cruz antibody (400 μg total protein per kinase assay). The immunoprecipitate was split into equal aliquots and the kinase assays performed using GST-Pak1 K299 as a substrate. […] Phosphorylation was monitored by autoradiography.

Regarding `NC1=NC(=O)C(=C2CCNC(=O)c3[nH]c(Br)cc32)N1` [hymenialdisine, 4-(2-amino-4-oxo-2-imidazolin-5-ylidene)-2-bromo-4,5,6,7-tetrahydropyrrolo (2,3-c) azepine-8-one], the pIC50 against cdk6/cyclin D2 was 6.15; against c-abl tyrosine kinase, 5.40; at topoisomerase II α, below 5.00; at casein kinase 1 [1] it was 7.46; at c-src tyrosine kinase, 5.15; against protein kinase C ε, 5.19. Moreover, the pIC50 was 7.15 against cdk2/cyclin A; 5.77 at protein kinase C β2; 7.40 at cdk2/cyclin E; 7.00 at cdk3/cyclin E; 7.00 to 8.00 at CDK5/p35; 6.15 against protein kinase C α. At CDK1/cyclin B, this compound had a pIC50 of 7.66. Besides, the IC50 with brain, SF-295 turned out to be 38.9 mg/L (≈ 120 µM); in the data set with lung, H460 it was 42 mg/L (≈ 130 µM); in the data set on P388 cell line it was 9.9 µM; in the data set with kidney, A498, 24.7 mg/L (≈ 76.2 µM). Moreover, the “viability (trypan blue)” value with HT29-18-C1 cells (10 μM HD at 24 h) is above 95%; in the data set with HT29-18-C1 cells (80 μM HD at 24 h), 90%. The “presenilin-2 phosphorylation by CK1” value with casein kinase 1 [2] is reported as “dose-dependent inhibition of presenilin-2 phosphorylation”.
